Entries after “also recorded” stand apart in the source; their conditions may differ.
Experiments:
EboV = test system: EboV; design: species or system Ebola virus
HeLa cells = type: cell-based, human
[1] = test system: thermolysin-cleaved VSV EboV GP particles; type: cell-based, Ebola virus Zaire
NPC1 = molecular target: T1, NPC1 (Homo sapiens, UniProt O15118); type: binding
T1 construct: expressed in transfected cells; host or cells: CHO/NPC1-1 (CHOhNPC1) cells; 15,000 g membrane pellet
T1 sequence (O15118 23-1278): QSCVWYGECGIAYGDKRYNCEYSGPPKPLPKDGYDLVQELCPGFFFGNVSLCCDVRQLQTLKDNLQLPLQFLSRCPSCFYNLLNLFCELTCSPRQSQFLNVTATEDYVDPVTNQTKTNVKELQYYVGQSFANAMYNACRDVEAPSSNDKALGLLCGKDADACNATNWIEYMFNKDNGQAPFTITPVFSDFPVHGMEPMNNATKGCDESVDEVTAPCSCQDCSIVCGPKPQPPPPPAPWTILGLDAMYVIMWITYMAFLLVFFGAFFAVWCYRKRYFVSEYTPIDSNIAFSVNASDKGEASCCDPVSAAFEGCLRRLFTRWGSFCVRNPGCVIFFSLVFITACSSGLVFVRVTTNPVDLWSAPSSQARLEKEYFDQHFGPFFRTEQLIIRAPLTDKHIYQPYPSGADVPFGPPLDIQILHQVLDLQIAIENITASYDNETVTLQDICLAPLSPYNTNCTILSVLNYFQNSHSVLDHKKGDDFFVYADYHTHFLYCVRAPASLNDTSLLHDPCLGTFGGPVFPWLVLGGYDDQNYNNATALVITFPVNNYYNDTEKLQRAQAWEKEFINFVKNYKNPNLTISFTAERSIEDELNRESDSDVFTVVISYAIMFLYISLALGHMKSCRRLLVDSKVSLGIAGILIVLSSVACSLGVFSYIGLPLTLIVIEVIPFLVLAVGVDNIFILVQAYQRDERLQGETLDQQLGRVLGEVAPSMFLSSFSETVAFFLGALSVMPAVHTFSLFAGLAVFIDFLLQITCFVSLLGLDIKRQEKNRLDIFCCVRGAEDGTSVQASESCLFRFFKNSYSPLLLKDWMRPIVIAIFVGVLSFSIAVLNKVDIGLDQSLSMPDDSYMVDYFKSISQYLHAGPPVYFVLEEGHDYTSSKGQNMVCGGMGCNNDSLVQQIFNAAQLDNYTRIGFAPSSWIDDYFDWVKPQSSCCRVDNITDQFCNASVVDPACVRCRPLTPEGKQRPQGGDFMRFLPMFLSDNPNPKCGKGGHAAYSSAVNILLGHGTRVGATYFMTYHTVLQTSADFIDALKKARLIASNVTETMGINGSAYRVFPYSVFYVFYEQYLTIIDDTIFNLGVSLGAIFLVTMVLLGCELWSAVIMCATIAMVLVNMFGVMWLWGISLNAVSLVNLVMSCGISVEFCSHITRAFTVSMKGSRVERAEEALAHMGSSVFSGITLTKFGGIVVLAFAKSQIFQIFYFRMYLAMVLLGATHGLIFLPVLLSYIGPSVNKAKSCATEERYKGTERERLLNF

[2] = test system: VSV particles pseudotyped with EboV Zaire GP; type: cell-based, Ebola virus Zaire
cathepsin B = cathepsin B (Homo sapiens, UniProt P07858); type: biochemical
[3] = test system: Ebola virus Zaire-Maying a encoding GFP; type: cell-based
[4] = molecular target: binding of cleaved EboV GPΔTM to NPC1 membranes (Mus musculus, UniProt O35604)
Chain of binding of cleaved EboV GPΔTM to NPC1 membranes (O35604 23-1277 limits assumed, stated change not applied): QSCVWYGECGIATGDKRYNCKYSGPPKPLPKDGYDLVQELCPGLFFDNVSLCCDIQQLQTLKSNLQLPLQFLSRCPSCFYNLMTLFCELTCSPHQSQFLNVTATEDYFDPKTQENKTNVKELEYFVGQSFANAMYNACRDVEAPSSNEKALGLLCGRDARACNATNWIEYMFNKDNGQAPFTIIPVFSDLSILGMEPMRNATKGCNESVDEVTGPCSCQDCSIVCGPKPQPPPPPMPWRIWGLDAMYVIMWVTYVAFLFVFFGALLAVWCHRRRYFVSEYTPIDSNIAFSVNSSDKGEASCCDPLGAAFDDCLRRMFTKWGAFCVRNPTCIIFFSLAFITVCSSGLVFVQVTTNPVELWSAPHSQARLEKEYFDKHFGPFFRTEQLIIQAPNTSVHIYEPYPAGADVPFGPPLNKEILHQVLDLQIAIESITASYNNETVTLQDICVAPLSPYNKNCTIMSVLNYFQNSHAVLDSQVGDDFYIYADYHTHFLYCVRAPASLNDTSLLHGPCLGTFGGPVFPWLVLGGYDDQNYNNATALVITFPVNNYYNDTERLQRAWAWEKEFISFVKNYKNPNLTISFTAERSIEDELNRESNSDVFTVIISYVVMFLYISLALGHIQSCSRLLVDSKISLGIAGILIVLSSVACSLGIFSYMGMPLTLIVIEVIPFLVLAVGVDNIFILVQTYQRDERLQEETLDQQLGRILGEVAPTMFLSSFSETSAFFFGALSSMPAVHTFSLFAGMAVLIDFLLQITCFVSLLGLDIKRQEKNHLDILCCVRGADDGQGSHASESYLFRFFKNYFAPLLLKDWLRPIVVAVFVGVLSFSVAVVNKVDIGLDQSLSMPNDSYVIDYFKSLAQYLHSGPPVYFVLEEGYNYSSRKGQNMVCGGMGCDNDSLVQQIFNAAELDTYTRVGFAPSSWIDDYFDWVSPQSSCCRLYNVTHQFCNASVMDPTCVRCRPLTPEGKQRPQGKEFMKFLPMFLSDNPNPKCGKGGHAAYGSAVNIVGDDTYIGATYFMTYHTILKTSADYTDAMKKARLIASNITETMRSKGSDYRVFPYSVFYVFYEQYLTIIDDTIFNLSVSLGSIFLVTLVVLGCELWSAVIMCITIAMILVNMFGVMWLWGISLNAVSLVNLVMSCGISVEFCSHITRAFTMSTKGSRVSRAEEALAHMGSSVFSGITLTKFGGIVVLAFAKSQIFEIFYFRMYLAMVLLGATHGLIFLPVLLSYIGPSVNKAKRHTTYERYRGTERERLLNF

EBOV Zaire-1995 = type: cell-based, Ebola virus Zaire; details: 96 h
[5] = test system: VSV particles pseudotyped with VSV G; type: cell-based, vesicular stomatitis virus

In the case of COc1ccc([C@@H]2Sc3ccccc3N(CCN(C)C)C(=O)[C@@H]2OC(C)=O)cc1 [diltiazen], the anti-EboV activity (EboV) was “weak anti-EboV activity”.
With COC(=O)c1ccc(COc2ccccc2CN2CCN(C(=O)CNC(=O)CC34CC5CC(CC(C5)C3)C4)CC2)cc1 [compound 3.48, methyl 4-((2-((4-(2-(2-((3r,5r,7r)-adamantan-1-yl)acetamido)acetyl)piperazin-1-yl)methyl)phenoxy)methyl)benzoate] the “cholesterol uptake from LE/LY into cells” value (HeLa cells) was “inhibit cholesterol uptake”, the “induction of filipin-labelled cytoplasmic vacuoles” value (HeLa cells) was “developed cytoplasmic vacuoles” and the “inhibition of infection by thermolysin-treated VSV EboV particles” value [1] was “inhibited infection”. For the same molecule, the “inhibition of cross-linking of 3.105 to NPC1” value (NPC1) was “inhibited”, the “potency as measured by a single cycle of EboV GP-dependent infection, relative to 3.0” value [2] was “increased the potency” and the “effect on cathepsin B activity” value (cathepsin B) was “no effect was observed”. For the same molecule, the “efficacy as measured by growth of EboV on Vero cells, relative to 3.0” value [3] was “increased” and the “inhibition of binding of cleaved EboV GPΔTM to NPC1 membranes” value [4] was “blocked; also recorded: inhibited binding”.
With O=C(CC12CC3CC(CC(C3)C1)C2)NCC(=O)N1CCN(Cc2ccccc2)CC1 [3.0, 2-((3r,5r,7r)-adamantan-1-yl)-N-(2-(4-benzylpiperazin-1-yl)-2-oxoethyl)acetamide] the “reduction of EboV growth on Vero cells” value (EBOV Zaire-1995) was over 99%, the “cholesterol uptake from LE/LY into cells” value (HeLa cells) was “inhibit cholesterol uptake” and the “induction of filipin-labelled cytoplasmic vacuoles” value (HeLa cells) was “developed cytoplasmic vacuoles”. For the same molecule, the “inhibition of infection by thermolysin-treated VSV EboV particles” value [1] was “inhibited infection”, the “inhibition of EboV GP infection in the screen” value [2] was “more than 80%” and the “inhibition of EboV GP-dependent infection of Vero cells” value [2] was “inhibits infection”. The “effect on cathepsin B activity” value (cathepsin B) was “no effect was observed”, the “inhibition of VSV G-dependent infection of Vero cells” value [5] was “not” and the “inhibition of binding of cleaved EboV GPΔTM to NPC1 membranes” value [4] was “inhibited binding”.
For CCN(CC)CCO[C@H]1CC[C@@]2(C)C(=CC[C@@H]3[C@@H]2CC[C@]2(C)C(=O)CC[C@@H]32)C1 [U18666A, reference compound], the “inhibition of binding of cleaved EboV GPΔTM to NPC1 membranes” value [4] was “does not inhibit binding”.
With CC/C(=C(\c1ccccc1)c1ccc(OCCN(C)C)cc1)c1ccccc1 [tamoxifen] the anti-EboV activity (EboV) was “weak anti-EboV activity”.
In the case of CCCCc1oc2ccccc2c1C(=O)c1cc(I)c(OCCN(CC)CC)c(I)c1 [amiodarone], the anti-EboV activity (EboV) was “weak anti-EboV activity”.
With C#Cc1ccc(COc2ccc(N=[N+]=[N-])cc2CN2CCN(C(=O)CNC(=O)CC34CC5CC(CC(C5)C3)C4)CC2)cc1 [compound 3.105, 2-((3r,5r,7r)-adamantan-1-yl)-N-(2-(4-(5-azido-2-((4-ethynylbenzyl)oxy)benzyl)piperazin-1-yl)-2-oxoethyl)acetamide] the “cross-linking to NPC1” value (NPC1) was “cross-linked” and the “inhibition of EboV GP-dependent infection of Vero cells” value [2] was “has anti-EboV activity”.
